The results in this text go back to PubChem BioAssay (NCI).

Common to all, as to experiment: NCI tumour cell line growth inhibition, 48 h
Assay [1] has as its system K-562 leukemia.
For assay [2], the system named is OVCAR-8 ovarian.
Assay [3] concerns UO-31 renal.
The test system of assay [4] is SF-268 CNS.
The test system of assay [5] is SW-620 colon.
In assay [6] the test system is SK-OV-3 ovarian.
Assay [7] concerns A549 NSCLC.
In assay [8] the test system is NCI-H23 lung.
Assay [9] has as its system MCF7 breast.
The test system of assay [10] is DU-145 prostate.

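48-hour exposure; five concentrations; linearly interpolated endpoints. Here, GI50 denotes the concentration required for 50% inhibition of growth. TGI is the concentration that stops growth completely.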 Bounds are passed on as bounds.

With `C=CCC(C)(C(=O)NCCC)C(=O)c1ccccc1O` (stereo not drawn), the TGI in assay [1], in assay [2], in assay [3], in assay [4], in assay [5] and in assay [6] was more than 100 µM in each case. The compound further yielded a TGI in [7] of more than 100 µM.

With `O=C1c2ccccc2C2(O)Oc3cccc(O)c3C12O` (stereo not drawn), the TGI in [1], in [2], in [3], in assay [4], in [8] and in assay [5] was more than 100 µM each time. Further, the TGI in assay [6] and in assay [7] was more than 100 µM each time.

`Cc1nn(C)c(=O)c2nn(-c3ccccc3)c(C)c12`: the TGI in [1], in [2], in assay [3], in assay [4], in assay [8] and in assay [5] was more than 100 µM each time. For the same compound, the TGI in assay [6] and in assay [7] was more than 100 µM in each case.

Take `CCOC(=O)C1(C(=O)OCC)CC=C(C)CC12C(=O)Nc1ccccc12` (stereo not drawn): the TGI in [1], in [2], in [4], in assay [8], in assay [5] and in assay [6] was more than 100 µM in each case. This compound gave a TGI in assay [7] of more than 100 µM.

With `O=C1CCC(=O)C12CCc1cccc(O)c12`, the TGI in [1], in [2], in [3], in assay [4], in [8] and in [5] was more than 100 µM throughout. Besides, the TGI in assay [6] and in [7] was more than 100 µM throughout.

For the compound `Cn1cnc([N+](=O)[O-])c1Sc1nnc(C(F)(F)F)n1C`, the TGI in [1] was 63.6 µM; in assay [2], 67.8 µM; in assay [3], more than 100 µM; in [4] it was more than 100 µM; in assay [8], more than 100 µM; in assay [5] it was 43.3 µM. The TGI in [6] and in assay [7] was more than 100 µM throughout.

For the compound `COc1cc(C(CC(OC)OC)=C(C#N)C#N)cc(OC)c1OC`, the TGI in [2] was 73 µM; in [3] it was more than 100 µM; in [4], more than 100 µM; in assay [8], more than 100 µM; in assay [5], more than 100 µM; in [6], more than 100 µM. Moreover, the TGI in assay [7] was more than 100 µM.

With `C=CCNc1cccc2c1C(=O)c1ccccc1C2(O)CC=C` (stereo not drawn), the GI50 was 31.1 µM in assay [1]; 19.5 µM in assay [2]; 27.7 µM in assay [3]; 62.7 µM in [4]; 18.2 µM in [8]; 66.7 µM in assay [9]. In addition, the GI50 in assay [10] is 24.9 µM; in assay [5] it was 22.2 µM; in assay [7] it was 23.7 µM. The TGI in [1] was 95.2 µM; in [2], 47.1 µM; in assay [3], more than 100 µM; in assay [4], more than 100 µM; in [8], 45.7 µM; in [9], more than 100 µM. Besides, the values for the TGI in assay [10], in [5] and in [7] were 63 µM, 55.1 µM and 69 µM, respectively.

In the case of `COc1ccc2sc3c(NCCCNCCO)nc4ccccc4c3c(=O)c2c1`, the GI50 is 1.83 µM in assay [1]; 1.65 µM in [2]; 1.56 µM in assay [3]; 1.52 µM in assay [4]; 1.73 µM in assay [8]; 1.54 µM in [9]. In addition, the values for the GI50 in assay [10], in assay [5] and in [7] were 1.6 µM, 1.61 µM and 1.68 µM, respectively. Besides, the TGI was found to be 4.32 µM in [1]; 3.45 µM in assay [2]; 2.99 µM in assay [3]; 3.16 µM in assay [4]; 3.27 µM in assay [8]; 3.1 µM in assay [9]. For the same compound, the results for the TGI in assay [10], in [5] and in assay [7] were 2.98 µM, 3.13 µM and 3.31 µM, respectively.

As to `COc1ccc(S(=O)(=O)N/N=C(\C)CN2C(=O)c3ccccc3C2=O)cc1`, the TGI in assay [1], in assay [2], in assay [3], in assay [4], in [8] and in [5] was more than 100 µM each time. Further, the TGI in assay [6] and in assay [7] was more than 100 µM throughout.

On to `CC1=N/C(=C\c2cccc3ccccc23)C(=O)O1`, for which the TGI in assay [1], in assay [2], in assay [3], in [4], in assay [8] and in [5] was more than 100 µM each time. The TGI in assay [7] is more than 100 µM.

Consider `CCCCCCCCCC(=O)N[C@H]1CCc2cc(OC)c(OC)c(OC)c2-c2ccc(SC)c(=O)cc21`, for which the TGI in [1] was 29.5 µM; in [3], 44.2 µM; in assay [5], more than 100 µM; in assay [6], 0.0678 µM; in [7] it was more than 100 µM. In addition, the GI50 in assay [3] was 0.0168 µM.

With `COC1(OC)c2ccccc2C2(O)c3ccccc3C(=O)C12` (stereo not drawn), the TGI was more than 100 µM in assay [1]; more than 100 µM in [2]; 86.8 µM in [3]; more than 100 µM in assay [4]; more than 100 µM in assay [8]; more than 100 µM in assay [5]. Moreover, the TGI in [6] was more than 100 µM.

For the compound `O=C1NC(=S)NC(=O)C1=Cc1ccc2ccccc2n1`, the TGI in [1], in [2], in assay [3], in assay [4], in [8] and in assay [5] was more than 100 µM each time. Also, the TGI in assay [6] and in [7] was more than 100 µM each time.

For the compound `COc1ccc(N2C(=O)C3c4[nH]c5ccccc5c4C4CCC(C(C)(C)C)CC4C3C2=O)cc1OC` (stereo not drawn), the TGI in assay [1] is 84.5 µM; in assay [2], 33.9 µM; in [3] it was more than 100 µM; in assay [4], 38.3 µM; in assay [8], more than 100 µM; in assay [5], 72 µM. The TGI in assay [6] was 45 µM; in assay [7] it was 32.6 µM.
